# According to US12415819B2, “Cu- and Ni-catalyzed decarboxylative borylation reactions” (The Scripps Research Institute, priority 2017, dated 2025):
# Several values for one entry are separate records, joined by “and”; a condition that tells them apart may be missing. Identical values can stand only once.
# How the values were obtained:
# [1] = biological target: T1, human neutrophil elastase (Homo sapiens (Human), UniProt P08246); test: Time dependence of elastase inhibition; assay type: biochemical
# Procedure: The procedure for the elastase inhibition assay was followed with slight modifications. 0.1 μg/mL human neutrophil elastase was incubated with a range of concentrations of inhibitors for 5, 15, 30 and 60 minutes before substrate MeOSuc-AAPV-AMC of 100 μM final concentration was added. Enzyme kinetics were read on PheraSTAR plate reader and IC50 was calculated with the method described above.
# [2] = biological target: elastase in CF patient sputum (Homo sapiens (Human), UniProt P08246); test: Elastase inhibition assay in CF patient sputum; assay type: biochemical; details: for IC50 / LipE: CF sputum; for inhibitory activity in patient sputum versus purified HNE (in words): sputum samples of CF and COPD patients
# Procedure: (§1) Serially diluted compounds in DMSO were dispensed into a 384-well black opaque plate by Echo dispenser. 0.1 μg/mL human neutrophil elastase (EPC, Catalog# SE563, Owensville, Ms.) or human sputum diluted with assay buffer (100 mM HEPES, 500 mM NaCl, 0.02% Tween 20) was added into the 384-well plate, and was incubated with different compounds at different concentrations for 30 minutes at room temperature. The final concentration of DMSO in the reaction was 0.1%. Elastase substrate MeOSuc-AAPV-AMC (Bachem, Catalog #I-1270, Torrance, CA) of 100 μM final concentration was then added into the reaction system just before enzyme kinetics were read on PheraSTAR plate reader at excitation of 380 nm and emission of 460 nm with a 3-minutes interval for 30 minutes in total. Slope of fluorescence intensity vs. time representing the Vmax of enzyme activity was calculated with MARS software. % relative inhibition was calculated as: […]
# (§2) IC50 was calculated based on the % relative inhibition curve using log(agonist) vs. response (three parameters) method with Prism software. All experiments were performed in triplicate for at least three independent times.
# (§3) Human sputum was purchased from Discovery Life Sciences (Los Osos, CA). Human sputum was diluted 1:10 in volume with assay buffer (100 mM HEPES, 500 mM NaCl, 0.02% Tween 20) followed by vigorous vortexing. The 1:10 diluted human sputum was further diluted into 1:30, 1:90, 1:270, 1:810, and 1:2430. The elastase concentration was determined by elastase inhibition assay as described above. Specifically, a series of standards of human neutrophil elastase (starting at 2 μg/mL and further diluted 1:2 in volume) were prepared in the assay buffer. The samples and standards were plated in a 384-well black solid bottom plate; the substrate MeOSuc-AAPV-AMC of 100 μM final concentration was then added into the reaction system just before enzyme kinetics were read on PheraSTAR plate reader as mentioned above. The slope of enzymatic kinetic reading was calculated by MARS software. The elastase levels of the human sputum were calculated based on the standard curve.
# Kinetic Solubility Test = assay type: physicochemical; details: for solubility kinetic at 24 h: aqueous buffer, kinetic from dmso stock, phosphate buffer pH 6.8, 24 h; for Kinetic solubility (pH 6.8): summary table
# Procedure: The stock solution of each compound (10 μL; 10 mM in DMSO) was diluted with phosphate buffer solution (490 μL; 50 mM, pH 6.8). The resulting mixture was shaken for 24 h. Samples were then filtered.
# [3] = biological target: T1, human neutrophil elastase; test: Elastase inhibition assay, purified human neutrophil elastase; assay type: biochemical; details: purified HNE
# [4] = biological target: elastase in COPD patient sputum (Homo sapiens (Human), UniProt P08246); test: Elastase inhibition assay in COPD patient sputum; assay type: biochemical
# Procedure: as §1, §2, §3
# Plasma Stability Assay = assay type: in vitro ADME, mouse; details: for % Remaining (mean): CD-1 Mouse Plasma; for portion intact in CD-1 mouse plasma: over 2 hours; for CD-1 Mouse Plasma % Remaining @ 2 hr: summary table
# Procedure: Propantheline was used as the reference compound in this assay; all stock solutions were stored at −40° C. before use. • 2) Test system: CD-1 Mouse Plasma from a minimum of 20 male individuals were obtained from BioreclamationlVT (Catalog #: […]2-M; Batch #: MSE244515). EDTA-K2 was used as the anticoagulant. Procedure:
# The frozen plasma was thawed in a water bath at 37° C. prior to the experiments. The plasma was centrifuged at 4000 rpm for 5 min and the clots were removed if necessary.
# The pH was adjusted to 7.4±0.1 as necessary. An intermediate solution (1 mM) was prepared and a 100 μM dosing solution was prepared by diluting 10 μL of the intermediate solution with 90 μL 45% MeOH/H2O. Duplicate of test samples were made by mixing 98 μL of blank plasma with 2 μL of dosing solution (100 μM) to achieve the final concentration of 2 μM. Samples were incubated at 37° C. At each time point (0, 10, 30, 60, and 120 min), 400 μL of stop solution (consisting of 200 ng/mL tolbutamide and 20 ng/mL buspirone in 50% MeOH/CH3CN) was added to precipitate protein under thorough mixing. The sample plates were then centrifuged at 4,000 rpm for 10 min. An aliquot of supernatant (100 μL) was transferred from each well and mixed with 200 of μL ultrapure water. The samples were shaken at 800 rpm for about 10 min before LC-MS/MS analysis.
# Data analysis: The % remaining of test compound after incubation in plasma was calculated using following equation: Remaining=100×(PAR at Tn/PAR at T0) where PAR is the peak area ratio of analyte versus internal standard (IS) and The appointed incubation time points are T0 (0 min), Tn (n=0, 10, 30, 60, 120 min).
# LC-MS/MS condition: Each compound was analyzed by LC/MS using an ACE 5-phenyl 50×2.1 mm column (Part No. ACE-125-0502) with 0.1% formic acid in water and 0.1% formic acid in acetonitrile as the mobile phases. Tobultamide was used as the internal standard. Data collected were processed by Analyst 1.6.2 software and MultiQuant 3.0.2 software.
# [5] = 5 min incubation with inhibitor
# [6] = 15 min incubation with inhibitor
# [7] = 30 min incubation with inhibitor
# [8] = 60 min incubation with inhibitor
# T1 sequence (P08246 30-247): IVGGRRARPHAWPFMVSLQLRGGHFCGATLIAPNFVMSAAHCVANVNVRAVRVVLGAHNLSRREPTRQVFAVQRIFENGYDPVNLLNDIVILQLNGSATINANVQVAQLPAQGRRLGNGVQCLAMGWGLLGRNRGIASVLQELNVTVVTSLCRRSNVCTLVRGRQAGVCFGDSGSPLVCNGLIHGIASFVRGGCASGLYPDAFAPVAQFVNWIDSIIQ
# elastase in CF patient sputum, sequence (P08246 30-267): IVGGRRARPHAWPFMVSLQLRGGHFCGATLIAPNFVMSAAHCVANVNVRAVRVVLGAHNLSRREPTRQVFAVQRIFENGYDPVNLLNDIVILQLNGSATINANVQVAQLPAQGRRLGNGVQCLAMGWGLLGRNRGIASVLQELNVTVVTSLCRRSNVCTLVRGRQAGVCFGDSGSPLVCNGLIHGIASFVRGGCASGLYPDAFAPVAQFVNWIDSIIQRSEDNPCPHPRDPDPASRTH
# elastase in COPD patient sputum, sequence (P08246 30-267): as above
Compound,"IC50 [1, 5] [nM]","IC50 [1, 6] [nM]","IC50 [1, 7] [nM]","IC50 [1, 8] [nM]",IC50 [2] [nM],LipE [2],inhibitory activity in patient sputum versus purified HNE (in words) [2],solubility kinetic at 24 h (Kinetic Solubility Test),Kinetic solubility (pH 6.8) (Kinetic Solubility Test) [μm],Ki [3] [nM],IC50 [4] [nM],LipE [4],"% Remaining (mean) (Plasma Stability Assay; 0 min, 2 μM, 37° C.) [%]",% Remaining (mean) (Plasma Stability Assay; 10 min) [%],% Remaining (mean) (Plasma Stability Assay; 30 min) [%],% Remaining (mean) (Plasma Stability Assay; 60 min) [%],% Remaining (mean) (Plasma Stability Assay; 120 min) [%],portion intact in CD-1 mouse plasma (Plasma Stability Assay) [%],CD-1 Mouse Plasma % Remaining @ 2 hr (Plasma Stability Assay) [%],change of IC50 with increasing incubation times (in words) ([1]; between 5-60 minutes)
"CC(C)[C@H](NC(=O)[C@@H]1CCCN1C(=O)[C@@H](NC(=O)c1ccc(C(=O)NS(=O)(=O)c2ccc(Cl)cc2)cc1)C(C)C)B(O)O [Compound 51, (1-((S)-1-((4-(((4-chlorophenyl)sulfonyl)carbamoyl)benzoyl)-L-valyl)pyrrolidine-2-carboxamido)-2-methylpropyl)boronic acid]",0.027,0.03,0.037,0.026,0.096 ± 0.002,6.83,retained much of their inhibitory activities,> 127 µg/mL and > 200 µM,>200,0.034,0.0223 ± 0.0006,7.46,100.0,90.0,79.4,84.1,90.3,90,90.3,
"CC(C)[C@H](NC(=O)[C@@H]1CCCN1C(=O)[C@@H](NC(=O)c1ccc(C(=O)NCC(=O)O)cc1)C(C)C)B(O)O [Compound 52, (4-(((2S)-1-((2S)-2-((1-borono-2-methylpropyl)carbamoyl)pyrrolidin-1-yl)-3-methyl-1-oxobutan-2-yl)carbamoyl)benzoyl)glycine]",0.004,0.0047,0.0042,0.0042,0.043 ± 0.002,9.62,retained much of their inhibitory activities,> 104 µg/mL and > 200 µM,>200,0.0037,0.0127 ± 0.0008,10.2,100.0,116.1,104.8,96.4,79.2,79,79.2,remain unchanged
